Data reported in patent US12544453B2, “Amphotericin B conjugated stabilized gold nanoparticles and uses thereof” (Max-Planck-Gesellschaft zur Förderung der Wissenschaften …, priority 2019, dated 2026).
In brackets after ≈: the same amount, converted by molar mass. Read-outs that look alike come from different tables or passages of the source.

Key:
Test in all cases: Antifungal susceptibility testing, broth microdilution MIC
Assay type in all cases: cell-based
Candida auris = settings: Candidozyma auris, fluconazole MIC50 (50% growth reduction), read-out: Minimum Inhibitory Concentration (MIC)
Method: (§1) The minimum inhibitory concentrations (MICs) of fluconazole, amphotericin B, amphotericin B thiohexose or thiopentose stabilized gold nanoparticles, and of naked gold nanoparticles were determined using broth microdilution methods following the guidelines of the Clinical and Laboratory Standards Institute (Reference Method for Broth Dilution Antifungal Susceptibility Testing of Yeasts, Alexander B. D., 2017, M27-A4). Microtiter 96-well plates containing two-fold serial dilutions, at final concentrations ranging from […], of the test agents in RPMI-1640 medium (buffered with MOPS and adjusted to pH=7) were inoculated with the freshly-prepared fungal suspensions. Microtiter plates were incubated at 35° C. for 24-72 hrs according to the tested species.

Candida parapsilosis = settings: Lodderomyces parapsilosis, read-out: Minimum Inhibitory Concentration (MIC)
Method: as §1

Candida albicans = settings: read-out: Minimum Inhibitory Concentration (MIC)
Method: as §1

Cryptococcus gatti = settings: read-out: Minimum Inhibitory Concentration (MIC)
Method: as §1

Cryptococcus neoformans = settings: read-out: Minimum Inhibitory Concentration (MIC)
Method: as §1

Candida glabrata = settings: Nakaseomyces glabratus, fluconazole MIC50 (50% growth reduction), read-out: Minimum Inhibitory Concentration (MIC)
Method: as §1

Aspergillus fumigatus = settings: read-out: Minimum Inhibitory Concentration (MIC)
Method: as §1

Candida tropicalis = system: Candida tropicalis
Method: as §1

Candida krusei = settings: Pichia kudriavzevii, read-out: Minimum Inhibitory Concentration (MIC)
Method: as §1

SMILES: OC(Cn1cncn1)(Cn1cncn1)c1ccc(F)cc1F [Fluconazole]
- MIC (Candida auris; Candida auris 381): 1 µg/mL (≈ 3.27 µM)
- MIC (Candida auris; Candida auris 385): > 128 µg/mL
- MIC (Candida auris; Candida auris 386): > 128 µg/mL
- MIC (Candida auris; Candida auris 389): > 128 µg/mL
- MIC (Candida auris; Candida auris 390): > 128 µg/mL
- MIC (Candida parapsilosis; ATCC22019): 2 µg/mL (≈ 6.53 µM)
- MIC (Candida parapsilosis): 0.5 µg/mL (≈ 1.63 µM)
- MIC (Candida albicans; ATCC10231, Candida albicans ATCC 10231, fluconazole MIC50 (50% growth reduction)): 2 µg/mL (≈ 6.53 µM)
- MIC (Candida albicans; ATCC26790, Candida albicans ATCC 26790, fluconazole MIC50 (50% growth reduction)): 1 µg/mL (≈ 3.27 µM)
- MIC (Candida albicans; ATCC64124, Candida albicans ATCC 64124, fluconazole MIC50 (50% growth reduction)): 128 µg/mL (≈ 418 µM)
- MIC (Candida albicans; Candida albicans NR 29446, fluconazole MIC50 (50% growth reduction)): > 128 µg/mL
- MIC (Candida albicans; Candida albicans NR 29448, fluconazole MIC50 (50% growth reduction)): > 128 µg/mL
- MIC (Candida albicans; SC5314, Candida albicans SC5314, fluconazole MIC50 (50% growth reduction)): 0.5 µg/mL (≈ 1.63 µM)
- MIC (Cryptococcus gatti; Cryptococcus gatti NR-43208, fluconazole MIC50 (50% growth reduction)): 8 µg/mL (≈ 26.1 µM)
- MIC (Cryptococcus gatti; Cryptococcus gatti NR-43209, fluconazole MIC50 (50% growth reduction)): 16 µg/mL (≈ 52.2 µM)
- MIC (Cryptococcus gatti; Cryptococcus gatti NR-43210, fluconazole MIC50 (50% growth reduction)): 16 µg/mL (≈ 52.2 µM)
- MIC (Cryptococcus gatti; Cryptococcus gatti NR-43213, fluconazole MIC50 (50% growth reduction)): 8 µg/mL (≈ 26.1 µM)
- MIC (Cryptococcus neoformans; Cryptococcus neoformans NR-41291, fluconazole MIC50 (50% growth reduction)): 16 µg/mL (≈ 52.2 µM)
- MIC (Cryptococcus neoformans; Cryptococcus neoformans NR-41295, fluconazole MIC50 (50% growth reduction)): 32 µg/mL (≈ 104 µM)
- MIC (Cryptococcus neoformans; Cryptococcus neoformans NR-41298, fluconazole MIC50 (50% growth reduction)): 4 µg/mL (≈ 13.1 µM)
- MIC (Cryptococcus neoformans; Cryptococcus neoformans NR-48767, fluconazole MIC50 (50% growth reduction)): 4 µg/mL (≈ 13.1 µM)
- MIC (Candida glabrata; ATCC2001, Candida glabrata ATCC 2001): 4 µg/mL (≈ 13.1 µM)
- MIC (Candida glabrata; ATCC66032, Candida glabrata ATCC 66032): 8 µg/mL (≈ 26.1 µM)
- MIC (Candida glabrata; Candida glabrata ATCC MYA-2950): 8 µg/mL (≈ 26.1 µM)
- MIC (Candida glabrata; Candida glabrata CAB 524041): 4 µg/mL (≈ 13.1 µM)
- MIC (Aspergillus fumigatus; Aspergillus fumigatus NR-35303, fluconazole MIC50 (50% growth reduction)): 128 µg/mL (≈ 418 µM)
- MIC (Aspergillus fumigatus; Aspergillus fumigatus NR-35304, fluconazole MIC50 (50% growth reduction)): > 128 µg/mL
- MIC (Aspergillus fumigatus; Aspergillus fumigatus NR-41312, fluconazole MIC50 (50% growth reduction)): 128 µg/mL (≈ 418 µM)
- MIC (Candida tropicalis; ATCC1369, read-out: Minimum Inhibitory Concentration (MIC)): 0.5 µg/mL (≈ 1.63 µM)
- MIC (Candida tropicalis; ATCC13803, read-out: Minimum Inhibitory Concentration (MIC)): 0.25 µg/mL (≈ 0.816 µM)
- MIC (Candida krusei; ATCC14243): 16 µg/mL (≈ 52.2 µM)
- MIC (Candida krusei; ATCC34135): 16 µg/mL (≈ 52.2 µM)
- MIC (Candida krusei): 16 µg/mL (≈ 52.2 µM)
